Reference: patent EP0029617A1, “Use of tertiary heterocyclic amines as synergists in pesticides; derivatives of cycloamines” (priority 1979, dated 1981)
Where two headings read alike, the source gives them in different places.

Tests used:
[1] = tested on: Kornkäfer (sitophilus granarius L); assay: whole plant or invertebrate; assay type: in vivo; settings: for % Wirkung Substanz +Ripcord / % Wirkung Substanz +Talcord: 180 min; for mortality at 100 µg/mL / mortality at 50 µg/mL / mortality at 1000 µg/mL: Sitophilus granarius; for mortality at 100 µg/mL: amine 0,1 mg/ml (as for Pyrethroid : Amin 1 : 10); for mortality at 100 µg/mL / mortality at 50 µg/mL: read-out: % Wirkung Substanz allein; for mortality at 50 µg/mL: amine 0,05 mg/ml (as for Pyrethroid : Amin 1 : 5); for mortality at 1000 µg/mL: read-out: Wirksamkeit in % Substanz allein
Procedure, shortened: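 Acetone solutions (2 ml) were dried as films in 15 cm Petri dishes and 25 grain weevils added per dish, with a filter inserted after 1 h. Dead beetles were counted at 3 h at 19–21 °C, and % mortality and the synergistic factor were derived.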

[2] = Acute oral toxicity, single oral application, 14 day LD50; parameters: species or system SPF-Wistar-Ratten; settings: rat, in vivo, read-out: 14 Tage LD50
Text: Die erfindungsgemäßen Verbindungen haben nur eine geringe Toxizität. Es wurde die akute, orale Toxizität von Phenyl-N-piperidino-essigsäure-ethylester und 1-N-Undecyl-piperidin bestimmt. Die Tests wurden mit SPF-Wistar-Ratten durchgeführt und die Wirkstoffe einmal oral appliziert.

Drosophila melanogaster = assay: whole plant or invertebrate; assay type: in vivo; settings: for Faktor der Wirkungssteigerung bei Dimi-tilan: amine 0,05 % + Dimetilan 0,0001 %
Text: Die insektiziden Wirkungen von tertiären heterocyclischen Aminen und die synergistischen Eigenschaften mit dem Phosphorsäureester Dimethoat und dem Carbamat Dimetilan, getestet an Drosophila melanogaster.
Die Versuche wurden in Petrischalen von 10 cm Durchmesser ausgeführt. Es wurden zunächst die gerade noch wirksamen Konzentrationen von Dimethoat und Dimetilan bestimmt. Für Dimethoat wurde 0,005 % und für Dimetilan 0,0001 % als günstige Versuchskonzentration ermittelt. Die Aminkomponente wurde mit 1 ml 0,05%iger Lösung + 1 ml Aceton auf insektizide Wirkung getestet. Zur Bestimmung des Synergismus wurde 1 ml 0,05%ige Aminlösung + 1 ml 0,005.%ige Dimethoatlösung, bzw. + 1 ml 0,0001%ige Dimetilanlösung pro Petrischale eingesetzt. Alle Verdünnungen wurden mit Aceton als Lösungsmittel hergestellt.
In den Petrischalen wurden die Lösungen am Boden gut verteilt und 30 min lang antrocknen lassen. In jede Petrischale wurden 20 mit Kohlendioxid betäubte Drosophila eingezählt. Alle 5 min, insgesamt 12 mal, wurde die Anzahl der toten Drosophila ausgezählt und notiert. Die Zahlen wurden aufsummiert und im Verhältnis zur möglichen Zahl an toten Drosophila in % angegeben, wobei der Tot aller Drosophila innerhalb der ersten 5 min 100 % Wirkung entspricht. Jeder Versuch wurde mit 3 Wiederholungen durchgeführt. In Tabelle 1 sind die Mittelwerte der Ergebnisse zusammengestellt.
Zur Ermittlung des synergistischen Faktors wurden die Einzelwerte pro Zeiteinheit durch die für Dimethoat, bzw. Dimetilan für die jeweilige Zeiteinheit gefundenen Werte dividiert. Die Werte für jede Zeiteinheit wurden summiert und durch die Anzahl der Zeiteinheiten dividiert. Die Versuche wurden bei sonst stets gleichbleibenden Bedingungen bei Temperaturen von 20 - 22°C ausgeführt. Die Kontrollversuche zeigten bei Versuchsabschluß stets 0 % Mortalität. Hat die Substanz selbst eine insektizide Wirkung, so wurden die Wirkungsfaktoren für Dimethoat und Dimetilan nach Abzug des Substanzwertes berechnet und in der Tabelle aufgeführt.
Im Beispiel 1 war das Verhältnis von Insektizid und erfindungsgemäßem Amin 1 : 10 in den Gemischen mit Dimethoat. In der Tabelle 2 sind Verhältnisse von 1 : 1, 1 : 2 und 1 : 0,2 bei Versuchen mit Dimethoat aufgeführt, dabei wurde das Dimethoat immer in einer Konzentation von 0,005 % eingesetzt. Die Tabelle zeigt, daß auch bei diesen Verhältnissen noch eine gute synergistische Wirkung vorhanden ist, und es keineswegs einer großen überdosierung des Amins bedarf.

[3] = Pyrethroid : Amin 1 : 5, amine 0,05 mg/ml
[4] = Pyrethroid : Amin 1 : 10, amine 0,1 mg/ml
[5] = 1 ml 0,05%ige amine solution + 1 ml 0,0001%ige Dimetilan solution
[6] = 1 ml 0,05%ige amine solution + 1 ml 0,005 %ige Dimethoat solution (Dimethoat : amine 1 : 10)
[7] = 1 ml 0,05%ige amine solution + 1 ml Aceton per dish, 20 flies, dead counted every 5 min, 12 times, mean values
[8] = calculated after subtracting the amine's own effect
[9] = amine 1 mg/ml + Ripcord 0,01 mg/ml
[10] = amine 1 mg/ml + Talcord 0,01 mg/ml
[11] = amine 1 mg/ml in Aceton mixed 1 : 1 with Aceton, 2 ml per dish, 25 weevils, dead counted after 3 h
[12] = amine 1 mg/ml mixed 1 : 1 with Ripcord 0,01 mg/ml, 3 h
[13] = amine 1 mg/ml mixed 1 : 1 with Talcord 0,01 mg/ml, 3 h
[14] = drosophila melanogaster, in vivo
[15] = sitophilus granarius, in vivo, 3 h
[16] = amine 0,05 % + Dimethoat 0,005 %, calculated after subtracting the amine's own effect
[17] = Drosophila melanogaster, 1 ml 0,05%ige amine solution + 1 ml Aceton per dish, 20 flies, dead counted every 5 min, 12 times, mean values, read-out: Wirksamkeit in % Substanz allein
[18] = Drosophila melanogaster, amine 0,005 %, read-out: Sub-stanz allein
[19] = amine 0,005 % + Dimethoat 0,005 %, Dimethoat : Amin 1 : 1
[20] = amine 0,005 %, Dimethoat : Amin 1 : 1

CCCCCCCCCCCN1CCCCC1 [N-1-Undecyl-piperidin]
% Wirkung Substanz +Ripcord [1, 3]: 90,8% | % Wirkung Substanz +Talcord [1, 3]: 53,2% | % Wirkung Substanz +Ripcord [1, 4]: 97,2% | % Wirkung Substanz +Talcord [1, 4]: 60,0% | mortality at 100 µg/mL ([1]; 3 h): 0% | mortality at 50 µg/mL ([1]; 3 h): 0% | LD50 at 336 h ([2]; männliche Ratten): 593 mg/kg | LD50 at 336 h ([2]; weibliche Ratten): 493 mg/kg

c1ccc(OCCCN2CCCCC2)cc1 [N-(1-Phenoxi-propyl-(3))-piperidin]
Wirksamkeit in % Substanz +Dimeti-lan (Drosophila melanogaster; [5]): 12,1% | Wirksamkeit in % Substanz +Dimethoat (Drosophila melanogaster; [6]): 8,8% | Wirksamkeit in % Substanz allein (Drosophila melanogaster; [7]): 0% | Faktor der Wirkungssteigerung bei Dimi-tilan (Drosophila melanogaster; [8]): 4,8 | Synergistischer Faktor bei Ripcord [1, 9]: 2,96 | Synergistischer Faktor bei Talcord [1, 10]: 3,01 | Wirksamkeit in % Substanz allein [1, 11]: 0% | Wirksamkeit in % Substanz +Ripcord [1, 12]: 93,2% | Wirksamkeit in % Substanz +Talcord [1, 13]: 29,2%

CCCCOCCOCCN1CCOCC1 [N-(2'-Butoxi-diethylether-(2))-morpholin]
Wirksamkeit in % Substanz +Dimethoat (Drosophila melanogaster; [14]): 12,9% | Wirksamkeit in % Substanz +Dimeti-lan (Drosophila melanogaster; [14]): 3,5% | Wirksamkeit in % Substanz allein (Drosophila melanogaster; [14]): 1,7% | Faktor der Wirkungssteigerung bei Dime-methoat (Drosophila melanogaster; in vivo): 1,30 | Synergistischer Faktor bei Ripcord ([1]; in vivo): 2,96 | Synergistischer Faktor bei Talcord ([1]; in vivo): 8,12 | Wirksamkeit in % Substanz +Ripcord [1, 15]: 93,2% | Wirksamkeit in % Substanz +Talcord [1, 15]: 78,8% | Wirksamkeit in % Substanz allein [1, 15]: 0%

CCCCOCCOCCOCCN1CCCC1 [N-(a-Butyl-triethylen-tri-ether-(w))-pyrrolidin]
Wirksamkeit in % Substanz +Dimeti-lan (Drosophila melanogaster; [5]): 1,7% | Wirksamkeit in % Substanz +Dimethoat (Drosophila melanogaster; [6]): 23,3% | Wirksamkeit in % Substanz allein (Drosophila melanogaster; [7]): 0% | Faktor der Wirkungssteigerung bei Dime-methoat (Drosophila melanogaster; [16]): 2,97 | Synergistischer Faktor bei Ripcord [1, 9]: 3,05 | Synergistischer Faktor bei Talcord [1, 10]: 1,24 | Wirksamkeit in % Substanz allein [1, 11]: 0% | Wirksamkeit in % Substanz +Ripcord [1, 12]: 96,0% | Wirksamkeit in % Substanz +Talcord [1, 13]: 13,2%

C(=Cc1ccccc1)CN1CCCCC1 [N-Cinnamyl-piperidin]
Wirksamkeit in % Substanz +Dimeti-lan (Drosophila melanogaster; [5]): 82,5% | Wirksamkeit in % Substanz +Dimethoat (Drosophila melanogaster; [6]): 77,1% | mortality at 0.05 % (Drosophila melanogaster; [17]): 66.3% | Faktor der Wirkungssteigerung bei Dime-methoat (Drosophila melanogaster; [16]): 1,25 | Faktor der Wirkungssteigerung bei Dimi-tilan (Drosophila melanogaster; [8]): 6,48 | mortality at 1000 µg/mL [1, 11]: 0% | Synergistischer Faktor bei Ripcord [1, 9]: 3,08 | Synergistischer Faktor bei Talcord [1, 10]: 7,01 | Wirksamkeit in % Substanz +Ripcord [1, 12]: 97,2% | Wirksamkeit in % Substanz +Talcord [1, 13]: 68,0%

CC(C)=CCCC(C)CCN1CCCCC1 (stereo not shown) [N-Citronellyl-piperidin]
mortality at 0.001 % (Drosophila melanogaster; Drosophila melanogaster, amine 0,001 %, read-out: Sub-stanz allein): 0% | mortality at 0.005 % (Drosophila melanogaster; [18]): 0% | Substanz + Dime-thoat (Drosophila melanogaster; amine 0,001 % + Dimethoat 0,005 %, Dimethoat : Amin 1 : 0,2): 30,4% | Faktor der Wirkungs-steigerung (Drosophila melanogaster; amine 0,001 %, Dimethoat : Amin 1 : 0,2): 3,53 | Substanz + Dime-thoat (Drosophila melanogaster; [19]): 32,9% | Faktor der Wirkungs-steigerung (Drosophila melanogaster; [20]): 3,83 | mortality at 1000 µg/mL [1, 11]: 1.2% | Synergistischer Faktor bei Ripcord [1, 9]: 2,46 | Synergistischer Faktor bei Talcord [1, 10]: 5,53 | Wirksamkeit in % Substanz +Ripcord [1, 12]: 78,8% | Wirksamkeit in % Substanz +Talcord [1, 13]: 54,8%

CCCCCCCCCCN1CCCCCC1 [N-Decyl-hexamethylenimin]
Wirksamkeit in % Substanz +Dimeti-lan (Drosophila melanogaster; [5]): 68,8% | Wirksamkeit in % Substanz +Dimethoat (Drosophila melanogaster; [6]): 65,0% | mortality at 0.05 % (Drosophila melanogaster; [17]): 49.2% | Faktor der Wirkungssteigerung bei Dime-methoat (Drosophila melanogaster; [16]): 1,84 | Faktor der Wirkungssteigerung bei Dimi-tilan (Drosophila melanogaster; [8]): 7,84 | mortality at 1000 µg/mL [1, 11]: 69.2% | Synergistischer Faktor bei Ripcord [1, 9]: 1,35 | Wirksamkeit in % Substanz +Ripcord [1, 12]: 93,2% | Wirksamkeit in % Substanz +Talcord [1, 13]: 62,8%

CCOC(=O)CC(C(=O)OCC)N1CCCCC1 (stereo not shown) [N-Piperidino-bernstein-säure-di-ethylester]
Wirksamkeit in % Substanz +Dimeti-lan (Drosophila melanogaster; [5]): 2,3% | Wirksamkeit in % Substanz +Dimethoat (Drosophila melanogaster; [6]): 38,8% | Wirksamkeit in % Substanz allein (Drosophila melanogaster; [7]): 0% | Faktor der Wirkungssteigerung bei Dime-methoat (Drosophila melanogaster; [16]): 4,51 | Synergistischer Faktor bei Ripcord [1, 9]: 3,08 | Synergistischer Faktor bei Talcord [1, 10]: 2,47 | Wirksamkeit in % Substanz allein [1, 11]: 0% | Wirksamkeit in % Substanz +Ripcord [1, 12]: 97,2% | Wirksamkeit in % Substanz +Talcord [1, 13]: 24,0%

c1cc2c(cc1CN1CCCCC1)OCO2 [N-Piperonyl-piperidin]
Wirksamkeit in % Substanz +Dimeti-lan (Drosophila melanogaster; [5]): 52,1% | Wirksamkeit in % Substanz +Dimethoat (Drosophila melanogaster; [6]): 65,0% | mortality at 0.05 % (Drosophila melanogaster; [17]): 51.7% | mortality at 0.05 % (Drosophila melanogaster; Drosophila melanogaster, amine 0,05 %, read-out: Sub-stanz allein): 28.8% | mortality at 0.005 % (Drosophila melanogaster; [18]): 0% | Substanz + Dime-thoat (Drosophila melanogaster; amine 0,05 % + Dimethoat 0,005 %, Dimethoat : Amin 1 : 10): 60,0% | Faktor der Wirkungssteigerung bei Dime-methoat (Drosophila melanogaster; [16]): 1,55 | Faktor der Wirkungs-steigerung (Drosophila melanogaster; amine 0,05 %, Dimethoat : Amin 1 : 10): 3,63 | Substanz + Dime-thoat (Drosophila melanogaster; [19]): 26,3% | Faktor der Wirkungs-steigerung (Drosophila melanogaster; [20]): 3,06 | % Wirkung Substanz +Ripcord [1, 3]: 84,0% | % Wirkung Substanz +Talcord [1, 3]: 54,8% | % Wirkung Substanz +Ripcord [1, 4]: 74,8% | % Wirkung Substanz +Talcord [1, 4]: 24,0% | mortality at 100 µg/mL ([1]; 3 h): 0% | mortality at 50 µg/mL ([1]; 3 h): 0% | mortality at 1000 µg/mL [1, 11]: 0% | Wirksamkeit in % Substanz +Ripcord [1, 12]: 90,8% | Wirksamkeit in % Substanz +Talcord [1, 13]: 64,0%

c1cc2c(cc1CN1CCCC1)OCO2 [N-Piperonyl-pyrrolidin]
Wirksamkeit in % Substanz +Dimeti-lan (Drosophila melanogaster; [5]): 58,3% | Wirksamkeit in % Substanz +Dimethoat (Drosophila melanogaster; [6]): 60,0% | mortality at 0.05 % (Drosophila melanogaster; [17]): 28.8% | Faktor der Wirkungssteigerung bei Dime-methoat (Drosophila melanogaster; [16]): 3,63 | Faktor der Wirkungssteigerung bei Dimi-tilan (Drosophila melanogaster; [8]): 11,80 | mortality at 1000 µg/mL [1, 11]: 41.2% | Synergistischer Faktor bei Ripcord [1, 9]: 1,87 | Synergistischer Faktor bei Talcord [1, 10]: 4,29 | Wirksamkeit in % Substanz +Ripcord [1, 12]: 100,0% | Wirksamkeit in % Substanz +Talcord [1, 13]: 82,8%
